Drawing on PubChem BioAssay AID1259411 (Chemical Carcinogenesis Research Information System (CCRIS), 2018), this text covers carcinogen call for five molecules.

Molecules are shown by their SMILES. Calls of active or inactive are those of the source. How the calls were made is not given here.

The data set has as its system rodent carcinogenicity bioassays, tumor incidence. Nature of the data set: CCRIS carcinogenicity studies. A digest of the protocol:
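NCI-built, expert-reviewed records of carcinogenicity and related test outcomes (mutagenicity, tumor promotion/inhibition) compiled from published and report sources, historical span 1985-2011, not updated.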

`CCCCN(N=O)C(N)=O`: the carcinogen call (Species: MOUSE (NEWBORN), Strain/Sex: CD-1/MALE,FEMALE, Route: SUBCUTANEOUS, Dose: 333 MG/KG IN 1% GEL SOLN WITHIN 24 HR OF BIRTH, Tumor Site: Type of Lesion: LUNG: ADENOMA, ADENOCARCINOMA, LIVER: ADENOMA) was “active; positive”; the carcinogen call (Species: RAT, Strain/Sex: F344/FEMALE, Route: GAVAGE, Dose: 0, 15 MG/ML (TOTAL DOSE 0; 1.7 MMOL) IN 2 ML ETHYL ACETATE AND CORN OIL (1:2) 2/WK FOR 40 WK (STUDY DURATION: LIFETIME), Dose: 0, 15 MG/ML (TOTAL DOSE 0; 1.7 MMOL) IN 2 ML ETHYL ACETATE AND CORN OIL (1:2) 2/WK FOR 40 WK (STUDY DURATION: LIFETIME), Tumor Site: Type of Lesion: FORESTOMACH: SQUAMOUS CELL CARCINOMA, LUNG: TUMOR, MAMMARY GLAND: TUMOR, UTERUS: TUMOR, Tumor Site: Type of Lesion: FORESTOMACH: SQUAMOUS CELL CARCINOMA, LUNG: TUMOR, MAMMARY GLAND: TUMOR, UTERUS: TUMOR) was “active; positive”; the carcinogen call (Species: RAT, Strain/Sex: F344/FEMALE, Route: GAVAGE, Dose: 0, 15 MG/ML IN 0.2 ML ETHYL ACETATE AND CORN OIL 2/WK FOR 40 WK (STUDY DURATION: LIFESPAN), Tumor Site: Type of Lesion: FORESTOMACH: TUMOR, LUNG: TUMOR, MAMMARY GLAND: TUMOR, UTERUS: TUMOR, Tumor Site: Type of Lesion: FORESTOMACH: TUMOR, LUNG: TUMOR, MAMMARY GLAND: TUMOR, UTERUS: TUMOR) is “active; positive”; the carcinogen call (Species: RAT, Strain/Sex: F344/MALE, Route: GAVAGE, Dose: 0, 15 MG/ML (TOTAL DOSE 0; 1.7 MMOL) IN 2 ML ETHYL ACETATE AND CORN OIL (1:2) 2/WK FOR 40 WK (STUDY DURATION: LIFETIME), Dose: 0, 15 MG/ML (TOTAL DOSE 0; 1.7 MMOL) IN 2 ML ETHYL ACETATE AND CORN OIL (1:2) 2/WK FOR 40 WK (STUDY DURATION: LIFETIME), Tumor Site: Type of Lesion: FORESTOMACH: SQUAMOUS CELL CARCINOMA, LUNG: TUMOR) was “active; positive”; the carcinogen call (Species: RAT, Strain/Sex: F344/MALE, Route: GAVAGE, Dose: 0, 15 MG/ML IN 0.2 ML ETHYL ACETATE AND CORN OIL 2/WK FOR 40 WK (STUDY DURATION: LIFESPAN), Tumor Site: Type of Lesion: FORESTOMACH: TUMOR, LUNG: TUMOR) was “active; positive”.

Take `CC1=CC(C)(C)Nc2ccccc21`: the carcinogen call reads like this: (Species: MOUSE, Strain/Sex: B6C3F1/FEMALE, Route: DERMAL, Dose: 0, 3.6, 6, 10 MG/KG BW IN ACETONE 5 D/WK FOR 103 WK (STUDY DURATION: 103 WK), Dose: 0, 3.6, 6, 10 MG/KG BW IN ACETONE 5 D/WK FOR 103 WK (STUDY DURATION: 103 WK)) “inactive; negative”; (Species: MOUSE, Strain/Sex: B6C3F1/MALE, Route: DERMAL, Dose: 0, 3.6, 6, 10 MG/KG BW IN ACETONE 5 D/WK FOR 103 WK (STUDY DURATION: 103 WK), Dose: 0, 3.6, 6, 10 MG/KG BW IN ACETONE 5 D/WK FOR 103 WK (STUDY DURATION: 103 WK)) “inactive; negative”; (Species: RAT, Strain/Sex: F344/FEMALE, Route: DERMAL, Dose: 0, 36, 60, 100 MG/KG BW IN ACETONE 5 D/WK FOR 104 WK (STUDY DURATION: 106 WK), Dose: 0, 36, 60, 100 MG/KG BW IN ACETONE 5 D/WK FOR 104 WK (STUDY DURATION: 106 WK)) “inactive; negative”; (Species: RAT, Strain/Sex: F344/MALE, Route: DERMAL, Dose: 0, 36, 60, 100 MG/KG BW IN ACETONE 5 D/WK FOR 103 WK (STUDY DURATION: 105 WK), Dose: 0, 36, 60, 100 MG/KG BW IN ACETONE 5 D/WK FOR 103 WK (STUDY DURATION: 105 WK), Tumor Site: Type of Lesion: KIDNEY(RENAL TUBULE): ADENOMA OR CARCINOMA) “active; positive”.

With `CC[C@H]1OC(=O)[C@H](C)[C@@H](O[C@H]2C[C@@](C)(OC)[C@@H](O)[C@H](C)O2)[C@H](C)[C@@H](O[C@@H]2O[C@H](C)C[C@H](N(C)C)[C@H]2O)[C@](C)(O)C[C@@H](C)C(=O)[C@H](C)[C@@H](O)[C@]1(C)O`, the carcinogen call runs as follows: (Species: MOUSE, Strain/Sex: B6C3F1/FEMALE, Route: ORAL, Dose: 0, 2500, 5000 PPM IN FEED FOR 103 WK (STUDY DURATION: 104 WK), Dose: 0, 2500, 5000 PPM IN FEED FOR 103 WK (STUDY DURATION: 104 WK)) “inactive; negative”; (Species: MOUSE, Strain/Sex: B6C3F1/MALE, Route: ORAL, Dose: 0, 2500, 5000 PPM IN FEED FOR 103 WK (STUDY DURATION: 104 WK), Dose: 0, 2500, 5000 PPM IN FEED FOR 103 WK (STUDY DURATION: 104 WK)) “inactive; negative”; (Species: RAT, Strain/Sex: F344/FEMALE, Route: ORAL, Dose: 0, 5000, 10000 PPM IN FEED FOR 103 WK (STUDY DURATION: 104 WK), Dose: 0, 5000, 10000 PPM IN FEED FOR 103 WK (STUDY DURATION: 104 WK)) “inactive; negative”; (Species: RAT, Strain/Sex: F344/MALE, Route: ORAL, Dose: 0, 5000, 10000 PPM IN FEED FOR 103 WK (STUDY DURATION: 104 WK), Dose: 0, 5000, 10000 PPM IN FEED FOR 103 WK (STUDY DURATION: 104 WK)) “inactive; negative”.

As for `CCOC(=O)c1ccccc1C(=O)OCC`, the carcinogen call runs as follows: (Species: MOUSE, Strain/Sex: B6C3F1/FEMALE, Route: DERMAL, Dose: 0, 7.5, 15, 30 µL/100 µL IN ACETONE 5 D/WK FOR 104-105 WK (STUDY DURATION: 104-105 WK), Dose: 0, 7.5, 15, 30 µL/100 µL IN ACETONE 5 D/WK FOR 104-105 WK (STUDY DURATION: 104-105 WK), Tumor Site: Type of Lesion: LIVER: HEPATOCELLULAR ADENOMA, HEPATOCELLULAR ADENOMA OR CARCINOMA) “equivocal”; (Species: MOUSE, Strain/Sex: B6C3F1/MALE, Route: DERMAL, Dose: 0, 7.5, 15, 30 µL/100 µL IN ACETONE 5 D/WK FOR 104-105 WK (STUDY DURATION: 104-105 WK), Dose: 0, 7.5, 15, 30 µL/100 µL IN ACETONE 5 D/WK FOR 104-105 WK (STUDY DURATION: 104-105 WK), Tumor Site: Type of Lesion: LIVER: HEPATOCELLULAR ADENOMA, HEPATOCELLULAR ADENOMA OR CARCINOMA) “equivocal”; (Species: RAT, Strain/Sex: F344/FEMALE, Route: DERMAL, Dose: 0, 100, 300 µL IN ACETONE 5 D/WK FOR 104 WK (STUDY DURATION: 104 WK), Dose: 0, 100, 300 µL IN ACETONE 5 D/WK FOR 104 WK (STUDY DURATION: 104 WK)) “inactive; negative”; (Species: RAT, Strain/Sex: F344/MALE, Route: DERMAL, Dose: 0, 100, 300 µL IN ACETONE 5 D/WK FOR 104 WK (STUDY DURATION: 104 WK), Dose: 0, 100, 300 µL IN ACETONE 5 D/WK FOR 104 WK (STUDY DURATION: 104 WK)) “inactive; negative”.

For the molecule `Nc1ccc(NCCO)c([N+](=O)[O-])c1`, the carcinogen call was “equivocal” (Species: MOUSE, Strain/Sex: B6C3F1/MALE, Route: GAVAGE, Dose: 0, 125, 250 MG/KG IN CORN OIL 5 D/WK FOR 104 WK (STUDY DURATION: 105 WK), Dose: 0, 125, 250 MG/KG IN CORN OIL 5 D/WK FOR 104 WK (STUDY DURATION: 105 WK), Tumor Site: Type of Lesion: LIVER: HEPATOCELLULAR ADENOMA OR CARCINOMA); “inactive; negative” (Species: RAT, Strain/Sex: F344/FEMALE, Route: GAVAGE, Dose: 0, 250, 500 MG/KG IN CORN OIL 5 D/WK FOR 105 WK (STUDY DURATION: 105 WK), Dose: 0, 250, 500 MG/KG IN CORN OIL 5 D/WK FOR 105 WK (STUDY DURATION: 105 WK)); “inactive; negative” (Species: RAT, Strain/Sex: F344/MALE, Route: GAVAGE, Dose: 0, 250, 500 MG/KG IN CORN OIL 5 D/WK FOR 105 WK (STUDY DURATION: 105 WK), Dose: 0, 250, 500 MG/KG IN CORN OIL 5 D/WK FOR 105 WK (STUDY DURATION: 105 WK)).
